In patent publication US6566304B1, “Biogenic control and limitation of the reproduction of parasitic earth nematodes in stock culture” (priority 1998, dated 2003):

Tests used:
Assay type in all cases: in vivo
[1] = test system: sugar beet; test: Example 3 pot test with sugar beet: plant growth
Protocol: (§1) Sugar beet was pregerminated in a temperature-controlled (18° C.) greenhouse and, at the two-leaf stage, the plants were each transplanted in a plastic pot (9×9 cm) filled with 500 g of a mixture of field soil and sand (1:1). The test substances were applied 2 days after transplanting. One day later, each pot was inoculated with 500 larvae of the nematode Heterodera schachtii. 6 Weeks later, the test was terminated and the density of the nematodes and also the shoot and root weights of the plants were determined.
(§2) The following variants (with 10 repetitions each) were selected for the tests:
(§3) fertilized control (quantity of N/P corresponds to 40 g/m^2 TerraPy G)
(§4) control treated with nematicide (Aldicarb, 1 ppm)

[2] = test system: nematode Heterodera schachtii; test: Example 3 pot test with sugar beet: nematode cysts on roots; conditions: Example 3, sugar beet, 6 weeks; comparators: Aldicarb 1 ppm; fertilized control N/P corresponds to 40 g/m^2 TerraPy G
Protocol: as §1, §2, §3, §4

[3] = test system: microorganisms (bacteria per g of soil); test: Example 3 pot test with sugar beet: soil microorganisms
[4] = test system: tomatoes; test: Example 4 pot test with tomatoes: plant growth
Protocol: as §1, with “Tomatoes were pregerminated in” for “Sugar beet was pregerminated in”, “inoculated with 1,000 larvae of” for “inoculated with 500 larvae of”, “the nematode Meloidogyne incognita. 8 Weeks later,” for “the nematode Heterodera schachtii. 6 Weeks later,”
as §2
(§5) fertilized control (quantity of N/P corresponds to 40 g/m^2 TerraPy B)
as §4

[5] = test system: nematode Meloidogyne incognita; test: Example 4 pot test with tomatoes: gall index of root system; conditions: Example 4, tomatoes, 8 weeks; scale 1 to 10 (1=undamaged, 10=completely damaged root system); comparators: Aldicarb 1 ppm; fertilized control N/P corresponds to 40 g/m^2 TerraPy B
Protocol: as §1, with “Tomatoes were pregerminated in” for “Sugar beet was pregerminated in”, “inoculated with 1,000 larvae of” for “inoculated with 500 larvae of”, “the nematode Meloidogyne incognita. 8 Weeks later,” for “the nematode Heterodera schachtii. 6 Weeks later,”
as §2, §5, §4
(§6) The gall index is a measure of the damage caused to the root system by the nematodes and is basically a scale of 1 to 10 where 1=undamaged and 10=completely damaged root system.

[6] = test system: microorganisms (bacteria per g of soil); test: Example 4 pot test with tomatoes: soil microorganisms
Protocol: as §1, with “Tomatoes were pregerminated in” for “Sugar beet was pregerminated in”, “inoculated with 1,000 larvae of” for “inoculated with 500 larvae of”, “the nematode Meloidogyne incognita. 8 Weeks later,” for “the nematode Heterodera schachtii. 6 Weeks later,”
as §2, §5, §4

[7] = test system: tomatoes; test: Example 5 pot test with tomatoes: plant growth; conditions: Example 5, tomatoes, 1,000 M. incognita larvae per pot, 8 weeks; comparators: Aldicarb 1 ppm; fertilized control N/P corresponds to 40 g/m^2 TerraPy B
Protocol: as §1, with “Tomatoes were pregerminated in” for “Sugar beet was pregerminated in”, “inoculated with 1,000 larvae of” for “inoculated with 500 larvae of”, “the nematode Meloidogyne incognita. 8 Weeks later,” for “the nematode Heterodera schachtii. 6 Weeks later,”
(§7) The following variants (with 8 repetitions each) were selected for the tests:
as §5, §4
(§8) The object of this test was to investigate the smaller effective dose of the product.

[8] = test system: nematode Meloidogyne incognita; test: Example 5 pot test with tomatoes: gall index of root system; conditions: Example 5, tomatoes, 8 weeks; scale 1 to 10; comparators: Aldicarb 1 ppm; fertilized control N/P corresponds to 40 g/m^2 TerraPy B
Protocol: as §6
as §1, with “Tomatoes were pregerminated in” for “Sugar beet was pregerminated in”, “inoculated with 1,000 larvae of” for “inoculated with 500 larvae of”, “the nematode Meloidogyne incognita. 8 Weeks later,” for “the nematode Heterodera schachtii. 6 Weeks later,”
as §7, §5, §4, §8

[9] = test system: microorganisms (bacteria per g of soil); test: Example 5 pot test with tomatoes: soil microorganisms
Protocol: as §1, with “Tomatoes were pregerminated in” for “Sugar beet was pregerminated in”, “inoculated with 1,000 larvae of” for “inoculated with 500 larvae of”, “the nematode Meloidogyne incognita. 8 Weeks later,” for “the nematode Heterodera schachtii. 6 Weeks later,”
as §7, §5, §4, §8

[10] = test system: tomatoes; test: Example 6 pot test with tomatoes, reduction of nematicides: plant growth
Protocol: as §1, with “Tomatoes were pregerminated in” for “Sugar beet was pregerminated in”, “inoculated with 1,000 larvae of” for “inoculated with 500 larvae of”, “the nematode Meloidogyne incognita. 6 Weeks” for “the nematode Heterodera schachtii. 6 Weeks”
(§9) The following variants (with 10 repetitions each) were selected for the tests: fertilized control (quantity of N/P corresponds to 40 g/m^2 TerraPy B) control treated with nematicide (Aldicarb, 1 ppm)
(§10) TerraPy B 20 g/m^2 plus Aldicarb 0.1 ppm
(§11) In addition, pots with all the variants mentioned above which had not been inoculated with nematodes were included in the tests.

[11] = test system: nematode Meloidogyne incognita; test: Example 6 pot test with tomatoes, reduction of nematicides: gall index; conditions: Example 6, tomatoes, 6 weeks; Aldicarb 1 ppm; fertilized control N/P corresponds to 40 g/m^2 TerraPy B; TerraPy B 20 g/m^2; TerraPy B 20 g/m^2 plus Aldicarb 0.1 ppm
Protocol: as §6
as §1, with “Tomatoes were pregerminated in” for “Sugar beet was pregerminated in”, “inoculated with 1,000 larvae of” for “inoculated with 500 larvae of”, “the nematode Meloidogyne incognita. 6 Weeks” for “the nematode Heterodera schachtii. 6 Weeks”
as §9, §10, §11

[12] = test system: tomatoes; test: Example 7 pot test with tomatoes, combination with mycorrhiza: plant growth; conditions: Example 7, tomatoes, 1,500 M. incognita larvae per pot, 9 weeks; Aldicarb 1 ppm; fertilized control N/P corresponds to 2 g/m^2 TerraPy B; TerraPy B 2 g/m^2; mycorrhiza 0.2%
Protocol: (§12) Tomato seeds were planted in plastic pots (9×9 cm) each filled with 320 g of a mixture of field soil and sand (1:1) in a temperature-controlled greenhouse (18° C.). The test substances were applied 29 days after emergence. Two days later, each pot was inoculated with 1,500 larvae of the nematode Meloidogyne incognita. 9 Weeks later, the test was terminated and the density of the nematodes and the shoot and root weights of the plants were determined.
as §2
(§13) fertilized control (quantity of N/P corresponds to 2 g/m^2 TerraPy B)
(§14) nematicide-treated control (Aldicarb, 1 ppm)
(§15) mycorrhiza fungus mixture 0.2%
(§16) TerraPy B 2 g/m^2 plus mycorrhiza 0.2%
(§17) The mycorrhiza fungus mixture contained a mixed population of various Glomus strains of the species Glomus sclerocystis and G. gigasporum with 950 infectious units per cm^3 (=0.64 g per pot). The mixture was mixed with the pot soil after dilution to 0.2% at the beginning of the test.

[13] = test system: nematode Meloidogyne incognita; test: Example 7 pot test with tomatoes, combination with mycorrhiza: galls on root system; conditions: Aldicarb 1 ppm, fertilized control N/P corresponds to 2 g/m^2 TerraPy B, TerraPy B 2 g/m^2, mycorrhiza 0.2%
Protocol: as §12, §2, §13, §14, §15, §16, §17

[14] = 2 days, comparators: Aldicarb 1 ppm, fertilized control
[15] = 14 days, comparators: Aldicarb 1 ppm, fertilized control
[16] = 56 days, comparators: Aldicarb 1 ppm, fertilized control
[17] = Example 4, tomatoes, 8 weeks, comparators: Aldicarb 1 ppm, fertilized control N/P corresponds to 40 g/m^2 TerraPy B

CNC(=O)O/N=C/C(C)(C)SC [Aldicarb]
plant growth / plant weight, in words ([1]; Example 3, sugar beet pot test): not effective in increasing plant weight
Root weight ([1]; Example 3, sugar beet, 6 weeks, comparators: Aldicarb 1 ppm, fertilized control N/P corresponds to 40 g/m^2 TerraPy G): 0.7 g
Shoot weight ([1]; Example 3, sugar beet, 500 H. schachtii larvae per pot, 6 weeks, comparators: Aldicarb 1 ppm, fertilized control N/P corresponds to 40 g/m^2 TerraPy G): 2.1 g
Nematode cysts per g root weight [2]: 15 per g root weight
effect on bacteria / microorganisms, in words [3]: harmful effect
bacteria per g of soil, 2 Days after application [3, 14]: 7 × 10^6 bacteria per g of soil
bacteria per g of soil, 14 Days after application [3, 15]: 8 × 10^6 bacteria per g of soil
bacteria per g of soil, 56 Days after application [3, 16]: 1 × 10^7 bacteria per g of soil
plant growth / plant weight, in words ([4]; Example 4, tomato pot test): not effective in increasing plant weight
Root length in cm [4, 17]: 12.0 cm
Root weight [4, 17]: 1.5 g
Shoot weight ([4]; Example 4, tomatoes, 1,000 M. incognita larvae per pot, 8 weeks, comparators: Aldicarb 1 ppm, fertilized control N/P corresponds to 40 g/m^2 TerraPy B): 4.7 g
Gall index [5]: 3.9
effect on bacteria / microorganisms, in words [6]: harmful effect
bacteria per g of soil, 2 Days after application [6, 14]: 1 × 10^7 bacteria per g of soil
bacteria per g of soil, 14 Days after application [6, 15]: 4 × 10^7 bacteria per g of soil
bacteria per g of soil, 56 Days after application [6, 16]: 1 × 10^6 bacteria per g of soil
Shoot weight [7]: 4.2 g
Gall index [8]: 4.2
effect on bacteria / microorganisms, in words [9]: harmful effect
bacteria per g of soil, 2 Days after application [9, 14]: 6 × 10^6 bacteria per g of soil
bacteria per g of soil, 14 Days after application [9, 15]: 1 × 10^6 bacteria per g of soil
bacteria per g of soil, 56 Days after application [9, 16]: 5 × 10^5 bacteria per g of soil
plant growth / plant weight, in words ([10]; Example 6, tomato pot test): completely ineffective
Root weight ([10]; Example 6, tomatoes, 6 weeks, Aldicarb 1 ppm, fertilized control N/P corresponds to 40 g/m^2 TerraPy B, TerraPy B 20 g/m^2, TerraPy B 20 g/m^2 plus Aldicarb 0.1 ppm): 1.8 g
Shoot weight ([10]; Example 6, tomatoes, 1,000 M. incognita larvae per pot, 6 weeks, Aldicarb 1 ppm, fertilized control N/P corresponds to 40 g/m^2 TerraPy B, TerraPy B 20 g/m^2, TerraPy B 20 g/m^2 plus Aldicarb 0.1 ppm): 3 g
Gall index [11]: 0.5
Shoot weight [12]: 4.2 g
Number of galls per root system ([13]; Example 7, tomatoes, 9 weeks): 22
Number of galls per root system, In percent ([13]; Example 7, unfertilized untreated control = 100%): 19%
